# Tests used:
# [1] = tested on: splenic B cells of Ighel Tg mice (BCRs specific to HEL); experiment: CFSE B cell proliferation and viability, splenic cells of Ighel Tg mice; format: cell-based; settings: 10 µg/mL, 4 days
# [2] = tested on: murine splenic B cells (CD19+); experiment: Nur77 expression in B cells by flow cytometry (BCR engagement); format: cell-based, mice; settings: micelle-Ag 10 µg/mL each component, LPS 0.5 µg/mL, anti-IgM F(ab′)2 10 µg/mL
# Source text: B cell proliferation was detected using in vitro labeling of cells with CFSE and analysis by flow cytometry. Distinct generations of proliferating cells can be monitored by dilutions of CFSE stain on the cells as viewed on the flow cytometry plots. For the flow cytometry procedure, the cells were transferred into polystyrene FACS tubes and labelled with Zombie Aqua dye for tracking viable cells post-stimulation using manufacturer’s instructions. […] For intracellular staining of Nur77 antibody, following surface staining, cells were washed with PBS and then fixed with 4% p-formaldehyde. After washing the cells again with PBS, 0.1% Triton X-100 was used for permeabilization, and following that, Nur77 Ab at a 1:50 dilution was used to stain the cells. After the staining, cells were washed in FACS buffer to remove excess dye and samples were fixed prior to analysis. The flow cytometry data was collected on FACSCanto II (BD Bioscience, NJ) and analyzed using FlowJo (FlowJo LLC, Ashland, CA).
Substance,B cell proliferation (CFSE^lo peaks) [1],Nur77 induction [2]
hen egg white lysozyme [HEL],small peak with some proliferation,–
lipopolysaccharide [LPS],–,did not trigger Nur77 induction

# Reference: US20230257703A1, “NANOSCALE POLYMERIC MICELLAR SCAFFOLDS FOR RAPID AND EFFICIENT ANTIBODY PRODUCTION” (Iowa State University Research Foundation, Inc., priority 2020, published 2023)
